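Five concentrations, 48 hours, 96-well plates. GI50: concentration for 50% inhibition of growth.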 The source made the active and inactive calls. Cut-off read from the data, not from the text of the source: active = GI50 up to about 1.1 µM and inactive = higher.
Key:
Test in all cases: NCI anticancer screen, dose series, 48 h
OVCAR-5 = tested on: OVCAR-5
SNB-75 = tested on: SNB-75
EKVX = tested on: EKVX
SN12C = tested on: SN12C
UACC-257 = tested on: UACC-257
MDA-MB-435 = tested on: MDA-MB-435
LOX IMVI = tested on: LOX IMVI
PC-3 = tested on: PC-3
SF-539 = tested on: SF-539
A549 = tested on: A549
T47D = tested on: T47D
SK-MEL-28 = tested on: SK-MEL-28
CAKI-1 = tested on: CAKI-1
U-251 = tested on: U-251
NCI-H522 = tested on: NCI-H522
SR = tested on: SR
RPMI-8226 = tested on: RPMI-8226
SF-268 = tested on: SF-268
MDA-N = tested on: MDA-N
RXF 393 = tested on: RXF 393

Measured: GI50

CC1=CC(=O)/C(=C/Nc2nc(-c3cccc([N+](=O)[O-])c3)cs2)C(=O)O1
inactive: OVCAR-5 > 100 µM | SNB-75 35.9 µM | EKVX 39.4 µM | SN12C 66.5 µM | UACC-257 > 100 µM | MDA-MB-435 75.2 µM | LOX IMVI 39.2 µM | PC-3 > 100 µM | SF-539 69 µM | A549 > 100 µM | T47D 77.1 µM | SK-MEL-28 > 100 µM | CAKI-1 24.8 µM | U-251 63.1 µM

CCSc1n/c(=C\c2ccco2)c2nncn12
inactive: OVCAR-5 > 100 µM | SNB-75 > 100 µM | EKVX > 100 µM | SN12C > 100 µM | NCI-H522 > 100 µM | SR > 100 µM | MDA-MB-435 > 100 µM | RPMI-8226 > 100 µM | LOX IMVI > 100 µM | SF-268 > 100 µM | PC-3 > 100 µM | MDA-N > 100 µM | A549 > 100 µM | SK-MEL-28 > 100 µM | U-251 > 100 µM

C(=N/c1ccccc1C1SCCCS1)/c1ccccc1
inactive: OVCAR-5 > 100 µM | SNB-75 > 100 µM | EKVX > 100 µM | SN12C > 100 µM | NCI-H522 > 100 µM | UACC-257 > 100 µM | MDA-MB-435 > 100 µM | RPMI-8226 > 100 µM | LOX IMVI > 100 µM | SF-268 > 100 µM | PC-3 > 100 µM | MDA-N > 100 µM | SF-539 > 100 µM | A549 > 100 µM | SK-MEL-28 > 100 µM | CAKI-1 > 100 µM | RXF 393 > 100 µM | U-251 > 100 µM

O=C(Nc1cc(Cl)c(Cl)cc1Cl)C(=O)C1C=CCS1(=O)=O (stereo not drawn)
inactive: OVCAR-5 > 100 µM | SNB-75 72.6 µM | EKVX > 100 µM | SN12C 93.5 µM | NCI-H522 > 100 µM | SR > 100 µM | UACC-257 > 100 µM | RPMI-8226 > 100 µM | LOX IMVI > 100 µM | SF-268 > 100 µM | SF-539 > 100 µM | A549 > 100 µM | SK-MEL-28 > 100 µM | CAKI-1 > 100 µM | RXF 393 > 100 µM | U-251 > 100 µM

CCC(C)(O)c1cn(-c2cccc(S(=O)(=O)O)c2)nn1 (stereo not drawn)
inactive: OVCAR-5 > 100 µM | SNB-75 > 100 µM | EKVX > 100 µM | SN12C > 100 µM | NCI-H522 > 100 µM | SR > 100 µM | UACC-257 > 100 µM | RPMI-8226 > 100 µM | LOX IMVI > 100 µM | SF-268 > 100 µM | SF-539 > 100 µM | A549 > 100 µM | SK-MEL-28 > 100 µM | CAKI-1 > 100 µM | RXF 393 > 100 µM | U-251 > 100 µM

COc1ccc(-c2nc(N)nc(-c3cc(C)ccc3O)c2Cl)cc1
inactive: OVCAR-5 > 100 µM | SNB-75 25 µM | EKVX 20.3 µM | SN12C 76.7 µM | NCI-H522 26.2 µM | SR > 100 µM | UACC-257 > 100 µM | RPMI-8226 > 100 µM | LOX IMVI 58.9 µM | SF-268 26.4 µM | SF-539 31.7 µM | A549 64.1 µM | SK-MEL-28 47.6 µM | CAKI-1 91.4 µM | RXF 393 37.2 µM | U-251 39.6 µM

CC(C)(CN1CCCCC1)C(=O)CC(SCCS(=O)(=O)O)c1ccc(Cl)cc1 (stereo not drawn)
inactive: OVCAR-5 1.86 µM | SNB-75 4.32 µM | EKVX 3.67 µM | SN12C 4.56 µM | NCI-H522 2.51 µM | SR 2.18 µM | UACC-257 6.67 µM | MDA-MB-435 3.48 µM | RPMI-8226 3.31 µM | PC-3 4.44 µM | MDA-N 2.81 µM | SF-539 2.3 µM | A549 6.56 µM | CAKI-1 6.73 µM | RXF 393 3.1 µM | U-251 10.5 µM

COc1ccc(NC(=O)CCc2cc(C(C)(C)C)[nH]n2)cc1
inactive: OVCAR-5 > 100 µM | SNB-75 > 100 µM | EKVX > 100 µM | SN12C > 100 µM | NCI-H522 74 µM | SR > 100 µM | UACC-257 > 100 µM | RPMI-8226 > 100 µM | LOX IMVI > 100 µM | SF-268 > 100 µM | SF-539 > 100 µM | A549 > 100 µM | SK-MEL-28 > 100 µM | CAKI-1 > 100 µM | RXF 393 > 100 µM | U-251 > 100 µM

COc1cc(C(C)c2cc3c(cc2OCCCCCOc2cc4c(cc2C(C)c2cc(OC)c(OC)c(OC)c2)OCO4)OCO3)cc(OC)c1OC (stereo not drawn)
inactive: OVCAR-5 > 100 µM | SNB-75 59.8 µM | EKVX > 100 µM | SN12C > 100 µM | NCI-H522 > 100 µM | SR > 100 µM | UACC-257 33.7 µM | RPMI-8226 > 100 µM | LOX IMVI > 100 µM | SF-268 > 100 µM | SF-539 > 100 µM | A549 > 100 µM | SK-MEL-28 > 100 µM | CAKI-1 > 100 µM | RXF 393 > 100 µM | U-251 > 100 µM

Cc1nc2c(O)cc3c4c(n(Cc5ccccc5)c3c2nc1C)C(=O)CCC4
inactive: OVCAR-5 > 100 µM | EKVX > 100 µM | SN12C > 100 µM | SR 18 µM | UACC-257 > 100 µM | MDA-MB-435 > 100 µM | RPMI-8226 > 100 µM | LOX IMVI 64.1 µM | SF-268 4.71 µM | PC-3 49.7 µM | MDA-N 45.9 µM | SF-539 17.5 µM | A549 50.5 µM | SK-MEL-28 22.5 µM | RXF 393 5.46 µM | U-251 12 µM

COC(=O)[C@]1(c2cc3ccccc3n2S(=O)(=O)c2ccccc2)CC2CN(C(=O)OCc3ccccc3)C1C1OC(C)(C)OC21 (stereo partly drawn)
inactive: OVCAR-5 > 100 µM | SNB-75 80.4 µM | EKVX > 100 µM | SN12C > 100 µM | NCI-H522 1.31 µM | UACC-257 > 100 µM | MDA-MB-435 > 100 µM | RPMI-8226 60.1 µM | LOX IMVI > 100 µM | PC-3 > 100 µM | MDA-N > 100 µM | A549 23.9 µM | SK-MEL-28 1.26 µM | CAKI-1 > 100 µM | RXF 393 > 100 µM | U-251 > 100 µM

COC(=O)C(COC(=O)/C=C/c1ccc(OC(C)=O)c(OC(C)=O)c1)OC(=O)/C=C/c1ccc(OC(C)=O)c(OC(C)=O)c1 (stereo not drawn)
inactive: OVCAR-5 13 µM | EKVX 17.5 µM | SN12C 14.6 µM | NCI-H522 5.18 µM | SR 3.01 µM | UACC-257 15.7 µM | MDA-MB-435 11 µM | RPMI-8226 11.6 µM | LOX IMVI 5.16 µM | SF-268 12.4 µM | PC-3 11.1 µM | MDA-N 9.73 µM | SF-539 10.8 µM | A549 16.7 µM | SK-MEL-28 15.5 µM | CAKI-1 6.87 µM | RXF 393 12.3 µM | U-251 4.62 µM
